Experimental data taken from patent publication US20260297042A1, “BIARYLAMIDE DERIVATIVES AND THEIR USE AS PKMYT1 INHIBITORS” (CANCER RESEARCH TECHNOLOGY LIMITED, priority 2023, published 2026).

Biological target: T1, Cellular PKMYT1 Biomarker CDK1 pT14 (Homo sapiens, UniProt Q99640)
T1 construct: read-out CDK1 phospho-T14 immunoblot
T1 sequence (Q99640 1-499): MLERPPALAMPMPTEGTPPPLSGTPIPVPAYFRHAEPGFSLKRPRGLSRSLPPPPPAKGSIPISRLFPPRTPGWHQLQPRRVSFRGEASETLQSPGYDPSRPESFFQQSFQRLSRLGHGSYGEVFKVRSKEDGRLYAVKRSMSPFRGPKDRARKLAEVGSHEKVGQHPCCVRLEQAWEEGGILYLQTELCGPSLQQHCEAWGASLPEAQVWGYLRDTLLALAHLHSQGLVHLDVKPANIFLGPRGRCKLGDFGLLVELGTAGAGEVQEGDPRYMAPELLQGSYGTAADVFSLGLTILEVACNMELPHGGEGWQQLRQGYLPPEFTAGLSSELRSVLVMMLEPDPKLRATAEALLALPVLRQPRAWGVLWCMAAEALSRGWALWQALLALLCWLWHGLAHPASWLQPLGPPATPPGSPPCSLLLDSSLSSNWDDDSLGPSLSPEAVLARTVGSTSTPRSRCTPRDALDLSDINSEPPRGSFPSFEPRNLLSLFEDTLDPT
Test: Inhibition of cellular PKMYT1 biomarker CDK1 pT14 in OVCAR 3 cells (immunoblot)
Assay type: cell-based
Settings: 20 hours incubation
How it was run: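 Confluent OVCAR 3 cells treated with a compound concentration range for 20 h at 37 °C. Lysates analysed by automated capillary immunoblot for CDK1 phospho-T14, with vinculin, fluorescence detection; IC50 by regression.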

IC50: < 100 nM
Structure (SMILES): CCN(CC)C(=O)Cn1cc(C)c(Nc2ncc(C(=O)Nc3c(C)ccc(O)c3C)s2)n1 [BAA-207, 2-[[1-[2-(diethylamino)-2-oxo-ethyl]-4-methyl-pyrazol-3-yl]amino]-N-(3-hydroxy-2,6-dimethyl-phenyl)thiazole-5-carboxamide]
